Assays:
Type in all cases: in vivo
[1] = tested on: crabgrass (Digitaria sanguinalis); experiment: Test B preemergence; conditions: scale 0 to 100, 0 no effect, 100 complete control
Summary of the method: (§1)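 Seeds were planted and sprayed preemergence with test chemical in a non-phytotoxic solvent mixture containing surfactant; postemergence plants (2 to 18 cm, 1- to 4-leaf stage) received the same formulation. Greenhouse hold 13 to 15 days, then visual rating versus untreated controls on a 0–100 scale (0 no effect, 100 complete control).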

corn (Zea mays) [2] = experiment: Test B preemergence; conditions: scale 0 to 100, 0 no effect, 100 complete control
Summary of the method: as §1

[3] = tested on: barnyardgrass (Echinochloa crus-galli); experiment: Test B preemergence; conditions: scale 0 to 100, 0 no effect, 100 complete control
Summary of the method: as §1

[4] = tested on: velvetleaf (Abutilon theophrasti); experiment: Test B preemergence; conditions: scale 0 to 100, 0 no effect, 100 complete control
Summary of the method: as §1

[5] = tested on: morning glory (Ipomoea hederacea); experiment: Test B preemergence; conditions: scale 0 to 100, 0 no effect, 100 complete control
Summary of the method: as §1

[6] = tested on: giant foxtail (Setaria faberii); experiment: Test B preemergence; conditions: scale 0 to 100, 0 no effect, 100 complete control
Summary of the method: as §1

rice (Oryza saliva) = experiment: Test B preemergence; conditions: scale 0 to 100, 0 no effect, 100 complete control
Summary of the method: as §1

[7] = tested on: Surinam grass (Brachiaria decumbens); experiment: Test B preemergence; conditions: scale 0 to 100, 0 no effect, 100 complete control
Summary of the method: as §1

[8] = tested on: lambsquarters (Chenopodium album); experiment: Test B preemergence; conditions: scale 0 to 100, 0 no effect, 100 complete control
Summary of the method: as §1

[9] = tested on: pigweed (Amaranthus retroflexus); experiment: Test B preemergence; conditions: scale 0 to 100, 0 no effect, 100 complete control
Summary of the method: as §1

[10] = tested on: cocklebur (Xanthium strumarium); experiment: Test B preemergence; conditions: scale 0 to 100, 0 no effect, 100 complete control
Summary of the method: as §1

wild oat (Avena fatua) = experiment: Test B postemergence; conditions: 13 to 15 days
Summary of the method: as §1

[11] = tested on: crabgrass (Digitaria sanguinalis); experiment: Test B postemergence; conditions: 13 to 15 days
Summary of the method: as §1

[12] = tested on: wheat (Triticum aestivum); experiment: Test B postemergence; conditions: 13 to 15 days
Summary of the method: as §1

corn (Zea mays) [13] = experiment: Test B postemergence; conditions: 13 to 15 days
Summary of the method: as §1

[14] = tested on: barnyardgrass (Echinochloa crus-galli); experiment: Test B postemergence; conditions: 13 to 15 days
Summary of the method: as §1

[15] = tested on: velvetleaf (Abutilon theophrasti); experiment: Test B postemergence; conditions: 13 to 15 days
Summary of the method: as §1

[16] = tested on: morning glory (Ipomoea hederacea); experiment: Test B postemergence; conditions: 13 to 15 days
Summary of the method: as §1

[17] = tested on: giant foxtail (Setaria faberii); experiment: Test B postemergence; conditions: 13 to 15 days
Summary of the method: as §1

[18] = tested on: Surinam grass (Brachiaria decumbens); experiment: Test B postemergence; conditions: 13 to 15 days
Summary of the method: as §1

[19] = tested on: blackgrass (Alopecurus myosuroides); experiment: Test B postemergence; conditions: 13 to 15 days
Summary of the method: as §1

[20] = tested on: lambsquarters (Chenopodium album); experiment: Test B postemergence; conditions: 13 to 15 days
Summary of the method: as §1

[21] = tested on: cocklebur (Xanthium strumarium); experiment: Test B postemergence; conditions: 13 to 15 days
Summary of the method: as §1

[22] = Rate 125 g/ha, scale 0 (no effect) to 100 (complete control)
[23] = Rate 500 g/ha, scale 0 to 100, 0 is no effect, 100 is complete control

O=C1C(n2cccn2)CCN1c1cccc(C(F)(F)F)c1 (centres unmarked) [Compound 15]
60: Plant response rating, Lambsquarters ([8]; Preemergence, Rate 500 g/ha)
20: Plant response rating, Surinam grass ([7]; Preemergence, Rate 500 g/ha) | Plant response rating, Crabgrass [11, 22]
50: Plant response rating, Velvetleaf ([4]; preemergence, Rate 125 g/ha) | Plant response rating, Wild Oat (wild oat (Avena fatua); [23]) | Plant response rating, Crabgrass [11, 23]
70: Plant response rating, Velvetleaf ([4]; Preemergence, Rate 500 g/ha)
0: Plant response rating, Crabgrass ([1]; Preemergence, Rate 500 g/ha) | Plant response rating, Crabgrass ([1]; preemergence, Rate 125 g/ha) | Plant response rating, Corn (corn (Zea mays) [2]; Preemergence, Rate 500 g/ha) | Plant response rating, Corn (corn (Zea mays) [2]; preemergence, Rate 125 g/ha) | Plant response rating, Barnyardgrass ([3]; Preemergence, Rate 500 g/ha) | Plant response rating, Barnyardgrass ([3]; preemergence, Rate 125 g/ha) | Plant response rating, Morningglory ([5]; preemergence, Rate 125 g/ha) | Plant response rating, Foxtail, Giant ([6]; Preemergence, Rate 500 g/ha) | Plant response rating, Foxtail, Giant ([6]; preemergence, Rate 125 g/ha) | Plant response rating, Rice (rice (Oryza saliva); Preemergence, Rate 500 g/ha) | Plant response rating, Rice (rice (Oryza saliva); preemergence, Rate 125 g/ha) | Plant response rating, Surinam grass ([7]; preemergence, Rate 125 g/ha) | Plant response rating, Lambsquarters ([8]; preemergence, Rate 125 g/ha) | Plant response rating, Pigweed ([9]; Preemergence, Rate 500 g/ha) | Plant response rating, Pigweed ([9]; preemergence, Rate 125 g/ha) | Plant response rating, Cocklebur ([10]; Preemergence, Rate 500 g/ha) | Plant response rating, Cocklebur ([10]; preemergence, Rate 125 g/ha) | Plant response rating, Wild Oat (wild oat (Avena fatua); [22]) | Plant response rating, Wheat [12, 22] | Plant response rating, Wheat [12, 23] | Plant response rating, Corn (corn (Zea mays) [13]; [22]) | Plant response rating, Corn (corn (Zea mays) [13]; [23]) | Plant response rating, Barnyardgrass [14, 22] | Plant response rating, Barnyardgrass [14, 23] | Plant response rating, Velvetleaf [15, 22] | Plant response rating, Velvetleaf [15, 23] | Plant response rating, Morningglory [16, 22] | Plant response rating, Morningglory [16, 23] | Plant response rating, Foxtail, Giant [17, 22] | Plant response rating, Surinam grass [18, 22] | Plant response rating, Surinam grass [18, 23] | Plant response rating, Blackgrass [19, 22] | Plant response rating, Lambsquarters [20, 22] | Plant response rating, Lambsquarters [20, 23] | Plant response rating, Cocklebur [21, 22] | Plant response rating, Cocklebur [21, 23]
30: Plant response rating, Morningglory ([5]; Preemergence, Rate 500 g/ha) | Plant response rating, Foxtail, Giant [17, 23] | Plant response rating, Blackgrass [19, 23]

Cc1ccn(C2CCN(c3cccc(C(F)(F)F)c3)C2=O)n1 (centres unmarked) [Compound 16]
0: Plant response rating, Crabgrass ([1]; Preemergence, Rate 500 g/ha) | Plant response rating, Crabgrass ([1]; preemergence, Rate 125 g/ha) | Plant response rating, Corn (corn (Zea mays) [2]; Preemergence, Rate 500 g/ha) | Plant response rating, Corn (corn (Zea mays) [2]; preemergence, Rate 125 g/ha) | Plant response rating, Barnyardgrass ([3]; Preemergence, Rate 500 g/ha) | Plant response rating, Barnyardgrass ([3]; preemergence, Rate 125 g/ha) | Plant response rating, Velvetleaf ([4]; preemergence, Rate 125 g/ha) | Plant response rating, Morningglory ([5]; Preemergence, Rate 500 g/ha) | Plant response rating, Morningglory ([5]; preemergence, Rate 125 g/ha) | Plant response rating, Foxtail, Giant ([6]; Preemergence, Rate 500 g/ha) | Plant response rating, Foxtail, Giant ([6]; preemergence, Rate 125 g/ha) | Plant response rating, Rice (rice (Oryza saliva); Preemergence, Rate 500 g/ha) | Plant response rating, Rice (rice (Oryza saliva); preemergence, Rate 125 g/ha) | Plant response rating, Surinam grass ([7]; Preemergence, Rate 500 g/ha) | Plant response rating, Surinam grass ([7]; preemergence, Rate 125 g/ha) | Plant response rating, Lambsquarters ([8]; Preemergence, Rate 500 g/ha) | Plant response rating, Lambsquarters ([8]; preemergence, Rate 125 g/ha) | Plant response rating, Pigweed ([9]; Preemergence, Rate 500 g/ha) | Plant response rating, Pigweed ([9]; preemergence, Rate 125 g/ha) | Plant response rating, Cocklebur ([10]; Preemergence, Rate 500 g/ha) | Plant response rating, Cocklebur ([10]; preemergence, Rate 125 g/ha) | Plant response rating, Wild Oat (wild oat (Avena fatua); [22]) | Plant response rating, Crabgrass [11, 22] | Plant response rating, Wheat [12, 22] | Plant response rating, Wheat [12, 23] | Plant response rating, Corn (corn (Zea mays) [13]; [22]) | Plant response rating, Corn (corn (Zea mays) [13]; [23]) | Plant response rating, Barnyardgrass [14, 22] | Plant response rating, Barnyardgrass [14, 23] | Plant response rating, Velvetleaf [15, 22] | Plant response rating, Velvetleaf [15, 23] | Plant response rating, Morningglory [16, 22] | Plant response rating, Morningglory [16, 23] | Plant response rating, Foxtail, Giant [17, 22] | Plant response rating, Surinam grass [18, 22] | Plant response rating, Surinam grass [18, 23] | Plant response rating, Blackgrass [19, 22] | Plant response rating, Blackgrass [19, 23] | Plant response rating, Lambsquarters [20, 22] | Plant response rating, Lambsquarters [20, 23] | Plant response rating, Cocklebur [21, 22] | Plant response rating, Cocklebur [21, 23]
50: Plant response rating, Wild Oat (wild oat (Avena fatua); [23])
60: Plant response rating, Crabgrass [11, 23]
20: Plant response rating, Velvetleaf ([4]; Preemergence, Rate 500 g/ha)
30: Plant response rating, Foxtail, Giant [17, 23]
